Earlier results on one compound are cited in patent publication US20240139276A1, “HAIR GROWTH AGENT” (ADJUVANT HOLDINGS CO., LTD., priority 2021, published 2024).

In data set [1] the test system is vascular endothelial growth factor (VEGF) expression in human dermal papilla cells. Conditions: adenosine allowed to act on human dermal papilla cells.
The subject of data set [2] is fibroblast growth factor 7 (FGF-7) expression in human dermal papilla cells. Conditions: adenosine allowed to act on human dermal papilla cells.

Each structure is given as a SMILES string.

With `Nc1ncnc2c1ncn2[C@@H]1O[C@H](CO)[C@@H](O)[C@H]1O` [adenosine], the “expression of vascular endothelial growth factor (VEGF)” value in data set [1] is “promotes expression of vascular endothelial growth factor (VEGF)”. For the same compound, the “expression of fibroblast growth factor 7 (FGF-7)” value in data set [2] is recorded as “also promotes expression of fibroblast growth factor 7 (FGF-7)”.
